Assay results as given in US8822494B2 (Pfizer Inc., priority 2012, dated 2014).
Where a name gives a salt, the structure may show the parent alone.

What was measured:
Human D1 [1] = target: T1, Human D1 (Homo sapiens (Human), UniProt P21728); assay: Human D1 Receptor Binding Assay ([3H]-SCH23390 competition); settings: read-out: Human D1 Receptor Binding, Ki (μM); Geometric mean of 2-3 determinations; over-expressing LTK human cell lines, 0.5 nM [3H]-SCH23390, 30 min at 37° C.; footnote b = single determination, c = geometric mean of ≧4 determinations
Protocol: D1 binding assays were performed using over-expressing LTK human cell lines. […] These ligand and tissue concentrations were used in time course studies to determine linearity and equilibrium conditions for binding. […] The pellet was resuspended in assay buffer [50 mM Tris (pH 7.4@ RT) containing 4 mM MgSO4 and 0.5 mM EDTA]. […] Non-specific binding was determined by radioligand binding in the presence of a saturating concentration of (+)-Butaclamol (10 μM), a D1 antagonist. After a 30 minute incubation period at 37° C., assay samples were rapidly filtered through Unifilter-96 GF/B PEI-coated filter plates and rinsed with 50 mM Tris buffer (pH 7.4 at 4° C.). […] Ki values were calculated according to the Cheng-Prusoff equation: […]

Human D1 [2] = target: T1, Human D1; assay: D1 cAMP HTRF Assay; format: cell-based; settings: HEK293T/hD1#1 stable cell line, 30 min at room temperature; footnote a = geometric mean of ≧7 determinations
From the text: This assay was used to determine the ability of a test compound to agonize (including partially agonize) D1. A Mab anti-cAMP labeled Cryptate visualizes the tracer. […] The signal, therefore, is inversely proportional to the concentration of cAMP in the sample.
The cAMP Dynamic kit was obtained from Cisbio International (Cisbio 62AM4PEJ). Multidrop Combi (Thermo Scientific) was used for assay additions. An EnVision (PerkinElmer) reader was used to read HTRF.
A HEK293T/hD1#1 stable cell line was constructed internally (Pfizer Ann Arbor).
Media was removed and cell pellet was re-suspended in PBS/[…] generating 2e5 cells/mL. […] Working solutions of cAMP-D2 and anti-cAMP-cryptate were prepared according to Cisbio instructions. […] The assay plate was incubated for 1 hour at room temperature. The assay plate was read on an EnVision plate reader using Cisbio recommended settings.
Data analysis was done using computer software. Percent effects were calculated from the compound controls. Ratio EC50 was determined using the raw ratio data from the EnVision reader. The cAMP standard curve was used in an analysis program to determine cAMP concentrations from raw ratio data. cAMP EC50 was determined using the calculated cAMP data.

T1 sequence (P21728 whole entry): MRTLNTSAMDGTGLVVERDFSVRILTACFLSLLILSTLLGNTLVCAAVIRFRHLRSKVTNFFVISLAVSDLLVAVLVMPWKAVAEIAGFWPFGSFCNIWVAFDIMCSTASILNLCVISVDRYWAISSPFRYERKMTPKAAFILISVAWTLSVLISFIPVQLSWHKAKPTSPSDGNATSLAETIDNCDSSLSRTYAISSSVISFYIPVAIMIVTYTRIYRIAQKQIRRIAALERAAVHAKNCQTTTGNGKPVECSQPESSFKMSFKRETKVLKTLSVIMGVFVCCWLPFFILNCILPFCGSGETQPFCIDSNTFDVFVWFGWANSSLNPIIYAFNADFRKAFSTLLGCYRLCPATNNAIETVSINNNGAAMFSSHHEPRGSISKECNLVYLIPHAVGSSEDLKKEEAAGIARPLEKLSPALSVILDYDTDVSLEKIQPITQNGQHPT

| SMILES | Ki (Human D1 [1]) [µM] | EC50 (Human D1 [2]) [nM] |
| --- | --- | --- |
| Cc1ncnc(C#N)c1-c1ccc(Oc2nccc3[nH]ncc23)cc1F [Example 35, 5-[2-fluoro-4-(1H-pyrazolo[4,3-c]pyridin-4-yloxy)phenyl]-6-methylpyrimidine-4-carbonitrile] | 0.0696 | 1340 |
| Cc1ncnc(C)c1-c1ccc(Oc2nccc3[nH]ncc23)cc1C#N [Example 34, 2-(4,6-dimethylpyrimidin-5-yl)-5-(1H-pyrazolo[4,3-c]pyridin-4-yloxy)benzonitrile] | 0.391 | 2380 |
| Cc1n[nH]c(=O)c(C)c1-c1ccc(Oc2nccc3[nH]ncc23)cc1 [Example 41, 4,6-dimethyl-5-[4-(1H-pyrazolo[4,3-c]pyridin-4-yloxy)phenyl]pyridazin-3(2H)-one] | 0.0409 | 127 |
| Cc1cc(Oc2nccc3[nH]ncc23)ccc1-c1cn[nH]c(=O)c1C [Example 42, 4-methyl-5-[2-methyl-4-(1H-pyrazolo[4,3-c]pyridin-4-yloxy)phenyl]pyridazin-3(2H)-one, trifluoroacetate salt] | 0.123 | 340 |
| Cc1ncnc(C)c1-c1ccc(Oc2nccc3[nH]ncc23)cc1 [Example 38, 4-[4-(4,6-dimethylpyrimidin-5-yl)phenoxy]-1H-pyrazolo[4,3-c]pyridine] | 0.129 | 2520 |
| Cc1ncnc(C)c1-c1cc(F)c(Oc2nccc3[nH]ccc23)cc1F [Example 22, 4-[4-(4,6-dimethylpyrimidin-5-yl)-2,5-difluorophenoxy]-1H-pyrrolo[3,2-c]pyridine] | 0.0548 | 538 |
| Cc1cc(Oc2nccc3[nH]ccc23)ccc1-c1cc(=O)[nH]nc1C [Example 29, 6-methyl-5-[2-methyl-4-(1H-pyrrolo[3,2-c]pyridin-4-yloxy)phenyl]pyridazin-3(2H)-one] | 0.0679 | 119 |

Molecules with a lower Ki (Human D1 [1]), results first:

| Ki (Human D1 [1]) [µM] | EC50 (Human D1 [2]) [nM] | SMILES |
| --- | --- | --- |
| 0.0103 | 66.3 | Cc1n[nH]c(=O)c(C)c1-c1ccc(Oc2nccc3[nH]nc(C)c23)cc1 [Example 45, 4,6-dimethyl-5-{4-[(3-methyl-1H-pyrazolo[4,3-c]pyridin-4-yl)oxy]phenyl}pyridazin-3(2H)-one] |
| 0.00183 | < 2.22 | Cc1cc(Oc2nccc3n[nH]cc23)ccc1-c1c(C)c(=O)[nH]c(=O)n1C (single isomer, unassigned) [Example 8, (−)-1,5-dimethyl-6-[2-methyl-4-(1H-pyrazolo[4,3-c]pyridin-4-yloxy)phenyl]pyrimidine-2,4(1H,3H)-dione] |
| 0.0106 | 64.6 | Cc1cc(Oc2nccc3[nH]ccc23)ccc1-c1c(C)ncc(=O)n1C (single isomer, unassigned) [Example 27, (+)-1,5-dimethyl-6-[2-methyl-4-(1H-pyrrolo[3,2-c]pyridin-4-yloxy)phenyl]pyrazin-2(1H)-one] |
| 0.0104 | 10.5 | Cc1cc(Oc2nccc3n[nH]cc23)ccc1-c1c(C)n[nH]c(=O)c1C (single isomer, unassigned) [Example 4, (−)-4,6-dimethyl-5-[2-methyl-4-(1H-pyrazolo[4,3-c]pyridin-4-yloxy)phenyl]pyridazin-3(2H)-one] |
| 0.0283 | 396 | Cc1ncnc(C#N)c1-c1ccc(Oc2nccc3[nH]ccc23)cc1F [Example 16, 5-[2-fluoro-4-(1H-pyrrolo[3,2-c]pyridin-4-yloxy)phenyl]-6-methylpyrimidine-4-carbonitrile] |
| 0.0348 | 355 | Cc1cc(Oc2nccc3[nH]ccc23)ccc1-c1c(C)cnn1C [Example 2, 4-[4-(1,4-dimethyl-1H-pyrazol-5-yl)-3-methylphenoxy]-1H-pyrrolo[3,2-c]pyridine] |
| 0.00976 | 15.1 | Cc1cc(Oc2nccc3n[nH]cc23)ccc1-c1c(C)n[nH]c(=O)c1C (single isomer, unassigned) [Example 3, (+)-4,6-dimethyl-5-[2-methyl-4-(1H-pyrazolo[4,3-c]pyridin-4-yloxy)phenyl]pyridazin-3(2H)-one] |
